Experimental data from patent US10564167B2, “Method for detecting cells” (FUNDACIÓ INSTITUT DE CIÈNCIES FOTÒNIQUES, priority 2014, dated 2020).

What was measured:
Type in all cases: cell-based
[1] = test system: human fibroblast nuclei (hFb); assay: Multi-color STORM imaging of H2B and H1 co-localization in hFbs and TSA-hFbs; details: TSA-hFbs (hFbs 61±11%, p=0.028)
Method: (§1) Human fibroblasts (hFb) (BJ, Skin Fibroblast, American Type Culture Collection, ATCC® CRL-2522™) were cultured in DMEM supplemented with 10% FBS, 1× Non-essential AA, 1× GlutaMax and 1× penicillin/streptomycin. Human fibroblasts were treated with 300 nM of TSA (TricostatinA, Sigma-Aldrich) solution (TSA-hFbs) in complete growth medium for 24 hours before imaging experiments. Human fibroblasts expressing the Histone H2B-SNAP fusion protein were obtained after drug selection of nucleofected cells with the pSNAP-H2B Plasmid (N91795, New England BioLabs) using the Amaxa Human Dermal Fibroblast Nucleofector Kit (Lonza, VPD-1001).
(§2) For the imaging experiments, cells were plated on 8-well Lab-tek 1 coverglass chamber (Nunc) at a seeding density of 20,000-50,000 cells per well, fixed and permeabilized with Methanol-Ethanol (1:1) solution at −20° C. for 6 min or fixed with PFA 4% in PBS for 10 min and then permeabilized with 0.1% v/v Triton X-100 (SIGMA) in PBS for 10 min at room temperature. […]
(§3) STORM imaging was carried out with a commercial STORM microscope system from Nikon Instruments (NSTORM). Laser light at 647 nm was used for exciting Alexa Fluor 647 (Invitrogen) and switching it to the dark state, and laser light at 405 nm was used for reactivating the Alexa Fluor 647 (Invitrogen) fluorescence via an activator dye (Alexa Fluor 405)—facilitated manner. […]

[2] = test system: H3 acetylation in human fibroblast cells; assay: STORM imaging of H3 acetylation in human fibroblasts before and after TSA; details: hFbs, 300 nM TSA 24 hours, STORM images
Method: as §1, §2, §3

[3] = test system: human fibroblast nuclei (hFb); assay: STORM super-resolution imaging of H2B nanodomains / nucleosome clutches in TSA-treated human fibroblasts
Method: as §1
as §2, with “temperature. As the distribution of H2B was independent of the fixation and permeabilization protocols, Methanol-Ethanol (1:1) was preferred to minimize the handling of the sample.” for “temperature.”
For all H2B quantification experiments, primary rabbit polyclonal anti-H2B (ab1790) and the secondary donkey anti-rabbit labeled with Alexa Fluor 405-Alexa Fluor 647 (Invitrogen) pair dyes were used after in vitro characterization using mononucleosome, 12- and 24-nucleosome array labeling.
as §3

## CC(/C=C/C(=O)NO)=C\[C@@H](C)C(=O)c1ccc(N(C)C)cc1 [TSA, Trichostatin A]
[1]
  percentage of H2B co-localized with H1: 42±6%
[2]
  H3 acetylation after TSA treatment: large increase in H3 acetylation
[3]; TSA-hFbs compared to hFbs, p<10^-3
  distributions of number of localizations per nanodomain, nanodomain areas and nanodomain nnds vs hFbs: shifted to lower values
[3]; TSA-hFbs, 300 nM TSA 24 hours (untreated hFbs ~25% higher)
  H2B nanodomain density in the nuclear periphery compared to the nuclear interior (enhancement): ~10%
[3]; hFbs treated with 300 nM TSA for 24 hours, converted from H2B localizations by in vitro calibration curve (untreated hFbs ~8)
  median number of nucleosomes per clutch: ~2 nucleosomes
